Measurements taken from ChEMBL document CHEMBL3621069 (Bioorg Med Chem Lett, 2015).

Columns and labels:
Rattus norvegicus = assay: Volume of distribution at steady state in Sprague-Dawley rat at 10 mg/kg, po; type: ADME, organism-based; details: in vivo
[1] = biological target: Voltage-gated inwardly rectifying potassium channel KCNH2 (Homo sapiens, UniProt Q12809); assay: Inhibition of human ERG by manual patch clamp assay
Mus musculus [2] = assay: Anti-arthritic activity in DBA1/J mouse model of collagen-induced arthritis assessed as reduction in arthritis clinical scores at 30 mg/kg, po administered orally continued once daily and twice daily through study; type: functional
[3] = test system: Proto-oncogene tyrosine-protein kinase receptor Ret (Homo sapiens), P07949 [V804M]; details: 0.1 uM
Description: Inhibition of human Ret V804M mutant at 0.1 uM

[4] = biological target: Tyrosine-protein kinase Lyn (Homo sapiens) (UniProt P07948); assay: Inhibition of human Lyn at 0.1 uM
[5] = test system: Proto-oncogene tyrosine-protein kinase receptor Ret (Homo sapiens), P07949 [V804M]; details: 0.01 uM
Description: Inhibition of human Ret V804M mutant at 0.01 uM

[6] = test system: Receptor-type tyrosine-protein kinase FLT3 (Homo sapiens), P36888 [D835Y]; assay: Inhibition of human Flt3 D835Y mutant at 0.1 uM
Salmonella typhimurium [7] = assay: Mutagenicity in Salmonella typhimurium TA100 at 5000 µg/plate in absence of liver S9 fraction by Ames test; type: toxicity, organism-based; details: salmonella enterica subsp. enterica serovar typhimurium
[8] = test system: Proto-oncogene tyrosine-protein kinase receptor Ret (Homo sapiens), P07949 [V804L]; details: 0.01 uM
Description: Inhibition of human Ret V804L mutant at 0.01 uM

[9] = Oral bioavailability in Sprague-Dawley rat at 10 mg/kg; type: ADME, organism-based; details: in vivo
[10] = biological target: Tyrosine-protein kinase Fgr (Homo sapiens) (UniProt P09769); assay: Inhibition of human Fgr at 0.1 uM
[11] = test system: Tyrosine-protein kinase ABL1 (Homo sapiens), P00519 [Q252H]; assay: Inhibition of human Abl Q252H mutant at 0.01 uM
[12] = test system: Epidermal growth factor receptor (Homo sapiens), P00533 [T790M]; assay: Inhibition of human EGFR T790M mutant at 0.01 uM; type: protein assay
[13] = test system: Epidermal growth factor receptor (Homo sapiens), P00533 [L858R,T790M]; assay: Inhibition of human EGFR T790M/L858R mutant at 0.1 uM; type: protein assay
[14] = Volume of distribution at steady state in dog at 5 mg/kg, iv; type: ADME, organism-based, Canis lupus familiaris; details: in vivo, read-out: Vdss
[15] = biological target: Serine/threonine-protein kinase PLK3 (Homo sapiens) (UniProt Q9H4B4); assay: Inhibition of human Plk3 at 0.1 uM
[16] = biological target: Mitogen-activated protein kinase kinase kinase 9 (Homo sapiens) (UniProt P80192); assay: Inhibition of human MLK1 at 0.01 uM
[17] = test system: Tyrosine-protein kinase ABL1 (Homo sapiens), P00519 [Q252H]; assay: Inhibition of human Abl Q252H mutant at 0.1 uM
[18] = Clearance in dog at 5 mg/kg, iv; type: ADME, organism-based, Canis lupus familiaris; details: in vivo
Salmonella typhimurium [19] = assay: Mutagenicity in Salmonella typhimurium TA1537 at 5000 µg/plate in presence of liver S9 fraction by Ames test; type: toxicity, organism-based; details: salmonella enterica subsp. enterica serovar typhimurium
[20] = test system: Proto-oncogene tyrosine-protein kinase receptor Ret (Homo sapiens), P07949 [V804L]; details: 0.1 uM
Description: Inhibition of human Ret V804L mutant at 0.1 uM

Salmonella typhimurium [21] = assay: Genotoxicity in Salmonella typhimurium TA1537 at 5000 µg/plate in absence of liver S9 fraction by Ames test; type: toxicity, organism-based; details: salmonella enterica subsp. enterica serovar typhimurium
[22] = biological target: Proto-oncogene tyrosine-protein kinase Src (Homo sapiens) (UniProt P12931); assay: Inhibition of human Src (1 to 530 residues) at 0.1 uM
[23] = Oral bioavailability in dog at 10 mg/kg; type: ADME, organism-based, Canis lupus familiaris; details: in vivo
[24] = biological target: Proto-oncogene tyrosine-protein kinase receptor Ret (Homo sapiens, UniProt P07949); assay: Inhibition of human RET pre-incubated for 30 mins at room temperature before substrate addition and measured 1 hr after substrate addition by cell free kinase assay
Mus musculus [25] = assay: Anti-arthritic activity in DBA1/J mouse model of collagen-induced arthritis assessed as reduction in arthritis clinical scores at 10 mg/kg, po administered orally continued once daily and twice daily through study; type: functional
[26] = test system: Proto-oncogene tyrosine-protein kinase Src (Homo sapiens), P12931 [T341M]; assay: Inhibition of human Src T341M mutant at 0.1 uM
[27] = biological target: Mitogen-activated protein kinase kinase kinase 9 (Homo sapiens) (UniProt P80192); assay: Inhibition of human MLK1 at 0.1 uM
[28] = biological target: Tyrosine-protein kinase Fyn (Homo sapiens) (UniProt P06241); assay: Inhibition of human Fyn (unknown origin) at 0.1 uM
[29] = biological target: Serine/threonine-protein kinase PLK3 (Homo sapiens) (UniProt Q9H4B4); assay: Inhibition of human Plk3 at 0.01 uM
[30] = AUClast in dog at 5 mg/kg, iv; type: ADME, organism-based, Canis lupus familiaris; set-up: dose 5 mg/kg, time 0 - last, route intravenous; details: in vivo
[31] = Apparent permeability from basolateral to apical side in human Caco2 cells; type: ADME, cell-based; details: Caco-2
[32] = biological target: Tyrosine-protein kinase HCK (Homo sapiens) (UniProt P08631); assay: Inhibition of human Hck at 0.1 uM
[33] = biological target: Tyrosine-protein kinase Lck (Homo sapiens) (UniProt P06239); assay: Inhibition of human Lck at 0.1 uM
[34] = AUClast in Sprague-Dawley rat at 10 mg/kg; type: ADME, organism-based; set-up: dose 10 mg/kg, time 0 - last; details: in vivo
Salmonella typhimurium [35] = assay: Genotoxicity in Salmonella typhimurium TA98 at 5000 µg/plate in absence of liver S9 fraction by Ames test; type: toxicity, organism-based; details: salmonella enterica subsp. enterica serovar typhimurium
[36] = test system: Receptor-type tyrosine-protein kinase FLT3 (Homo sapiens), P36888 [D835Y]; assay: Inhibition of human Flt3 D835Y mutant at 0.01 uM
[37] = AUClast in dog at 10 mg/kg, po; type: ADME, organism-based, Canis lupus familiaris; set-up: dose 10 mg/kg, route oral, time 0 - last; details: in vivo
[38] = biological target: Tyrosine-protein kinase Yes (Homo sapiens) (UniProt P07947); assay: Inhibition of human Yes at 0.1 uM
[39] = test system: Epidermal growth factor receptor (Homo sapiens), P00533 [T790M]; assay: Inhibition of human EGFR T790M mutant at 0.1 uM; type: protein assay
Salmonella typhimurium [40] = assay: Mutagenicity in Salmonella typhimurium TA100 at 5000 µg/plate in presence of liver S9 fraction by Ames test; type: toxicity, organism-based; details: salmonella enterica subsp. enterica serovar typhimurium
Escherichia coli = assay: Genotoxicity in Escherichia coli WP2 uvrA at 5000 µg/plate in absence of liver S9 fraction by Ames test; type: toxicity, organism-based
[41] = test system: Epidermal growth factor receptor (Homo sapiens), P00533 [L858R,T790M]; assay: Inhibition of human EGFR T790M/L858R mutant at 0.01 uM; type: protein assay
[42] = biological target: Tyrosine-protein kinase Blk (Homo sapiens) (UniProt P51451); assay: Inhibition of human Blk at 0.1 uM
[43] = Half life in dog at 5 mg/kg, iv; type: ADME, organism-based, Canis lupus familiaris; details: in vivo
[44] = biological target: T1, Tyrosine-protein kinase SYK (Homo sapiens, UniProt P43405); assay: Inhibition of SYK-mediated TNFalpha production in human IgG-stimulated human THP1 cells incubated for 18 hrs by ELISA method; type: cell-based, THP-1
[45] = biological target: T1, Tyrosine-protein kinase SYK; assay: Inhibition of purified full-length human SYK pre-incubated for 30 mins at room temperature before Ulight-TK peptide substrate addition and measured 1 hr after substrate addition by cell free kinase assay
[46] = biological target: Vascular endothelial growth factor receptor 2 (Homo sapiens, UniProt P35968); assay: Inhibition of KDR (unknown origin) pre-incubated for 30 mins at room temperature before substrate addition and measured 1 hr after substrate addition by cell free kinase assay

Sequence of Mitogen-activated protein kinase kinase kinase 9 (Homo sapiens) (P80192 whole entry, looked up): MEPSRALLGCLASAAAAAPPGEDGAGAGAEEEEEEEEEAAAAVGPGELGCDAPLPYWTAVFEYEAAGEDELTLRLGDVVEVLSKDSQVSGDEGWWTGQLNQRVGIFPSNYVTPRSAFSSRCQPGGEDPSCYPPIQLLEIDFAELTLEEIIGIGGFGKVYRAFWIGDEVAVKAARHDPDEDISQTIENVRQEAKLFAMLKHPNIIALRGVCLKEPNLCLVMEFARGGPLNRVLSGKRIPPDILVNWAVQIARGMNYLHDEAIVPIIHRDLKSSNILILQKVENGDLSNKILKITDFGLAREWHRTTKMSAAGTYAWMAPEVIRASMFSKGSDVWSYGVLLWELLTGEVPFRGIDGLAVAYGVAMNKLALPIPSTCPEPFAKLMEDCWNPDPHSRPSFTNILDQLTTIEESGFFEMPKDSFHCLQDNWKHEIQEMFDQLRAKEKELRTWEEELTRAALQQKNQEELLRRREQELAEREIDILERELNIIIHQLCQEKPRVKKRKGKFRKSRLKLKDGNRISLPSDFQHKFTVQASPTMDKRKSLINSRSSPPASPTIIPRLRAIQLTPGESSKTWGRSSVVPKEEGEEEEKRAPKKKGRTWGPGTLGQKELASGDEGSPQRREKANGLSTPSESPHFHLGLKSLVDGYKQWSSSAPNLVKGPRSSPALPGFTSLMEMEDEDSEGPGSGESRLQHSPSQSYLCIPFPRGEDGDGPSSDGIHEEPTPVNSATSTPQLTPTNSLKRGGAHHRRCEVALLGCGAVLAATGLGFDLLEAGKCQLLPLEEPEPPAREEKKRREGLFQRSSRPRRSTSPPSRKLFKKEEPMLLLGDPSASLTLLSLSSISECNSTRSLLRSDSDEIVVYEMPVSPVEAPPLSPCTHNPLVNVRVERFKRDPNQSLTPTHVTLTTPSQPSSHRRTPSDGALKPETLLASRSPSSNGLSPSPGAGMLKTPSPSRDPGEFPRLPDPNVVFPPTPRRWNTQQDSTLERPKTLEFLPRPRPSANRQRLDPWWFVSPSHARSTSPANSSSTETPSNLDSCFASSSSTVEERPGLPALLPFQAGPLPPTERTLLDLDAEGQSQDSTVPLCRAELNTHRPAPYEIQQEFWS
Sequence of Epidermal growth factor receptor (Homo sapiens), P00533 [L858R,T790M] (P00533 whole entry T790M/L858R, looked up): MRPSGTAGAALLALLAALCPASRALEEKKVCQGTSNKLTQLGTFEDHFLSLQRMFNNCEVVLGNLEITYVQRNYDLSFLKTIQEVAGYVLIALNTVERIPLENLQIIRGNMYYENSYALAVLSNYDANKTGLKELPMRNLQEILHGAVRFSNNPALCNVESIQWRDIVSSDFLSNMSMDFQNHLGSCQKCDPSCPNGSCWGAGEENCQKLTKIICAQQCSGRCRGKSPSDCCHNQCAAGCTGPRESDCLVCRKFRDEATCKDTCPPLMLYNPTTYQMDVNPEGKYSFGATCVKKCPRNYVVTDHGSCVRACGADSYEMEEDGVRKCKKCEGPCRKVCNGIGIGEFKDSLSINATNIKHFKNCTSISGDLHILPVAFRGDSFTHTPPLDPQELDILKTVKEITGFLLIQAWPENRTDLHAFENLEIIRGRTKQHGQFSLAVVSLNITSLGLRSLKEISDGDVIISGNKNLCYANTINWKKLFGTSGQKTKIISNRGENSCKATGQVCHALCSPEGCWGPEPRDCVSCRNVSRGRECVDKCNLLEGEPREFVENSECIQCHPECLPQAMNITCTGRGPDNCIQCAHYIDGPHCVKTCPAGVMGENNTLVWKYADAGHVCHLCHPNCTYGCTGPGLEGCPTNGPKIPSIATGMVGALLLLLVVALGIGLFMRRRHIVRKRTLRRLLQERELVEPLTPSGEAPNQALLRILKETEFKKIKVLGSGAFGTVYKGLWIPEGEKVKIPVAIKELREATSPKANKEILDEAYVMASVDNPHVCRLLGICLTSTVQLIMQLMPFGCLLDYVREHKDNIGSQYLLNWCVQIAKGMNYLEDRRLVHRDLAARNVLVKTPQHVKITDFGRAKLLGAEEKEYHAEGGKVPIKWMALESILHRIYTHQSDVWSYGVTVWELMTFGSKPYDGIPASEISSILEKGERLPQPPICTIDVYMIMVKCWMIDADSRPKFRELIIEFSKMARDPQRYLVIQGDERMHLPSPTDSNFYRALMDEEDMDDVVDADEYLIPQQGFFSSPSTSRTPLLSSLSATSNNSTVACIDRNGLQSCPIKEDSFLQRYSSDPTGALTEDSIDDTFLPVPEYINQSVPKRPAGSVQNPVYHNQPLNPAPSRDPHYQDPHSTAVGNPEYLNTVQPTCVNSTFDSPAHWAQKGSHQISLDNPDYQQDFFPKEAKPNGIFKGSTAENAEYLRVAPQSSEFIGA
Sequence of Serine/threonine-protein kinase PLK3 (Homo sapiens) (Q9H4B4 whole entry, looked up): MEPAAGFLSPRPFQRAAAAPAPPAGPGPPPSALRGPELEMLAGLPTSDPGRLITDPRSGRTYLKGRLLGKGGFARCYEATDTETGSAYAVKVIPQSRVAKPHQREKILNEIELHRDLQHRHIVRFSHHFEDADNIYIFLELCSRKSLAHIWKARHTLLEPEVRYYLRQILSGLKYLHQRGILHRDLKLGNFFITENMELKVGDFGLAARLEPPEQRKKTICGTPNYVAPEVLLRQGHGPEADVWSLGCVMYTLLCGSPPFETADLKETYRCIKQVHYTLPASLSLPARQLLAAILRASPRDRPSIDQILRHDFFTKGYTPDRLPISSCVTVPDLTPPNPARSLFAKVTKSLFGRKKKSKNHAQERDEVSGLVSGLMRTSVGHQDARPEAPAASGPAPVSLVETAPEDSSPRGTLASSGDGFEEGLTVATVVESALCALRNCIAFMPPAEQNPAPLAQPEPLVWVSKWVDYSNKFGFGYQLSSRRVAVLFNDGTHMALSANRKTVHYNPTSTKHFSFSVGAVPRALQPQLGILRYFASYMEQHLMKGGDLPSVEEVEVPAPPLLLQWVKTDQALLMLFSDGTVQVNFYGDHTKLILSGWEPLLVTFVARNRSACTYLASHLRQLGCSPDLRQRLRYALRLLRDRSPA
Sequence of Epidermal growth factor receptor (Homo sapiens), P00533 [T790M] (P00533 whole entry T790M): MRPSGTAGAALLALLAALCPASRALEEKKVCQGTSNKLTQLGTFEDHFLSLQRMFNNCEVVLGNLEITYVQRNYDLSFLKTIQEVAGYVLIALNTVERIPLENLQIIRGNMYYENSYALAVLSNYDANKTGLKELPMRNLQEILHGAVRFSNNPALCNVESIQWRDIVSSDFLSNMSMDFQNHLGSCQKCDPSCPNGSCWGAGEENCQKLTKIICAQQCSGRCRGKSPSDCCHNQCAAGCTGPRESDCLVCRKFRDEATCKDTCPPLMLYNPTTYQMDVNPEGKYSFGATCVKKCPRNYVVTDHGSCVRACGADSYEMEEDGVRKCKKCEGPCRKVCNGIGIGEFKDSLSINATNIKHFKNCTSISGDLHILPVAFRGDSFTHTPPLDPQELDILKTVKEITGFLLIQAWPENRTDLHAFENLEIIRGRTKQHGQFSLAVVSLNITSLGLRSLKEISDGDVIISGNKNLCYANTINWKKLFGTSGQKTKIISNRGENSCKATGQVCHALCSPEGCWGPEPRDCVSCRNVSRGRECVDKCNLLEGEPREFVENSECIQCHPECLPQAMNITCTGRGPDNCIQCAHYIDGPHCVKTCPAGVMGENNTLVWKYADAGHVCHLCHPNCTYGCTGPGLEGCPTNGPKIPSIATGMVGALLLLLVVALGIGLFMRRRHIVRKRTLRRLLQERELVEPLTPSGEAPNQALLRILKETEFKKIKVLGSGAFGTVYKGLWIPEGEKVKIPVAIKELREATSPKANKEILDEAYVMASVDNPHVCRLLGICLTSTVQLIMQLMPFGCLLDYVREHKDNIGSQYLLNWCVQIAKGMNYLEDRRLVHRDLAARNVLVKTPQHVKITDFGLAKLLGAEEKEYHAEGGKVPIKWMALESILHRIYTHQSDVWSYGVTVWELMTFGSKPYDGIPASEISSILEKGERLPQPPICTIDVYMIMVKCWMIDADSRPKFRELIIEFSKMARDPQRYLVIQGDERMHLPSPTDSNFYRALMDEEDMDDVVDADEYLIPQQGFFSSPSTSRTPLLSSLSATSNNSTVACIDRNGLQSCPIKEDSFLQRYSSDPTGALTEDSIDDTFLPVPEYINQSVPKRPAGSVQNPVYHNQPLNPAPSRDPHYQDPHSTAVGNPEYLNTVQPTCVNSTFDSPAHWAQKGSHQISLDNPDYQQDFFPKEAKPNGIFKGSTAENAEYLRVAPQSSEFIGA
Sequence of Tyrosine-protein kinase HCK (Homo sapiens) (P08631 2-526 limits assumed): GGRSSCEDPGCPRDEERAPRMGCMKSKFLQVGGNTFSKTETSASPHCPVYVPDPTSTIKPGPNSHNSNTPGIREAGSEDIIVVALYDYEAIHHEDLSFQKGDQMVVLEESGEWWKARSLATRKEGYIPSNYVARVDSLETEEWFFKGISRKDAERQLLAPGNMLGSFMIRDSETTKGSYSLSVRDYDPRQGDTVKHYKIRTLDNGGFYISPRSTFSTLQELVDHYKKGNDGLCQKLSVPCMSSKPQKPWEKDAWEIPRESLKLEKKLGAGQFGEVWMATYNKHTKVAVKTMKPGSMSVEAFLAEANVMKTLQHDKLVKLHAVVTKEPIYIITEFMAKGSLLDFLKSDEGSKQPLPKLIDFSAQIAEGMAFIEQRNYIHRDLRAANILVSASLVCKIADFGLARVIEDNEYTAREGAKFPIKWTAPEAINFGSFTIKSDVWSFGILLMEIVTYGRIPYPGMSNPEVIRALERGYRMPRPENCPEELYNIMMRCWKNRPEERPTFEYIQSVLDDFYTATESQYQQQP

For Cc1nn(-c2ccnc(Nc3ccc4c(c3)c(Cl)c(C)n4C)n2)cc1CN1CC(O)C1, the Vdss (Rattus norvegicus) was 3.3 L/kg, the IC50 [1] was 24.2 µM and the inhibition in vivo at 30 mg/kg (Mus musculus [2]) was 50%. It also gave an inhibition [3] of over 70%, an inhibition [4] of under 25% and an inhibition [5] of under 50%. For the same molecule, the inhibition [6] was over 70%, the Activity (Salmonella typhimurium [7]) was “Non-toxic” and the inhibition [8] was under 50%. For the same molecule, the bioavailability [9] was 28.4%, the inhibition [10] was under 25% and the inhibition [11] was under 50%. It also gave an inhibition [12] of under 50%, an inhibition [13] of over 70% and a Vd [14] of 7.1 L/kg. It also gave an inhibition [15] of over 70%, an inhibition [16] of 44% and an inhibition [17] of over 70%. The clearance [18] was 2.42 L/h/kg, the Activity (Salmonella typhimurium [19]) was “Non-toxic” and the inhibition [20] was over 70%. For the same molecule, the Activity (Salmonella typhimurium [21]) was “Non-toxic”, the inhibition [22] was under 25% and the bioavailability [23] was 46.4%. The IC50 [24] was 0.0678 µM, the inhibition in vivo at 10 mg/kg (Mus musculus [25]) was 30% and the inhibition [26] was under 25%. For the same molecule, the inhibition [27] was 91%, the inhibition [28] was under 25% and the inhibition [29] was under 50%. It also gave an AUC(0-t) [30] of 2.09 µg·h/mL, a Papp B→A [31] of 38 nm/s and an inhibition [32] of under 25%. The inhibition [33] was under 25%, the AUC(0-t) [34] was 3.23 µg·h/mL and the Activity (Salmonella typhimurium [35]) was “Non-toxic”. It also gave an inhibition [36] of under 50%, an AUC(0-t) [37] of 1.94 µg·h/mL and an inhibition [38] of under 25%. For the same molecule, the inhibition [39] was over 70%, the Activity (Salmonella typhimurium [40]) was “Non-toxic” and the Activity (Escherichia coli) was “Non-toxic”. It also gave an inhibition [41] of under 50%, an inhibition [42] of under 25% and a half-life [43] of 4.6 h.
With Cc1nn(-c2ccnc(Nc3ccc4c(c3)c(C)c(C)n4C)n2)cc1CN1CC(O)C1 the Vdss (Rattus norvegicus) was 3.7 L/kg, the IC50 [44] was 0.056 µM and the Activity (Salmonella typhimurium [7]) was “Non-toxic”. For the same molecule, the IC50 [45] was 0.0017 µM, the bioavailability [9] was 61% and the Activity (Salmonella typhimurium [19]) was “Non-toxic”. The Activity (Salmonella typhimurium [21]) was “Non-toxic”, the IC50 [46] was 0.653 µM and the Papp B→A [31] was 99 nm/s. For the same molecule, the AUC(0-t) [34] was 4 µg·h/mL, the Activity (Salmonella typhimurium [35]) was “Non-toxic” and the Activity (Salmonella typhimurium [40]) was “Non-toxic”. For the same molecule, the Activity (Escherichia coli) was “Non-toxic”.
